Assay results published in US20230303575A1, “FGFR AND MUTATION INHIBITOR THEREOF, PREPARATION METHOD THEREFOR AND USE THEREOF” (Abbisko Therapeutics Co., Ltd., priority 2020, published 2023).

Key:
Type in all cases: cell-based
[1] = target: T1, FGFR2 V564I (Homo sapiens, UniProt P21802, V564I); test: Cell proliferation assay for Tel-FGFR2 V564I in BaF3; conditions: BaF3 cells expressing FGFR2 V564I fusion, 48 hrs, CellTiter Glo
T1 construct: P41212 (Transcription factor ETV6)
Procedure: (§1) By transfection, cell strains of the intracellular kinase domain fusion protein of TEL-FGFR2 WT or the intracellular domain fusion proteins containing FGFR2 V564, V564F, V564L, N549K and K659M mutations were stably expressed in Baf cells. On day 1, the cell suspension was plated into a 96-well plate containing growth medium (DMEM containing 1% Glutamax, 10% FBS and 1% Pen/Strep) at 2000-4000 cells/90 μL/per well, and then the mixture was incubated overnight at 37° C. and 5% CO2. On day 2, 10 μL of growth medium containing a 10-fold stock solution of test compound was added to the cell culture (9 dose points, 3× serial dilution, starting from 1 μM, finally 0.3% DMSO). After incubation at 37° C. and 5% CO2 for 48 hrs, 50 μL of CellTiter Glo (CTG) reagent was added to the cell-containing 96-well plate on day 3, and the plate was then incubated at room temperature for 10 min. Then relative light units (RLUs) were measured on a microplate reader with a luminescence detection module. RLU values were normalized to % survival, and concentration-response curves were plotted using Prism to calculate IC50 (nM).

[2] = target: T2, FGFR3 N540K (Homo sapiens, UniProt P22607, N540K); test: Cell proliferation assay for FGFR3 N540K in BaF3; conditions: BaF3 cells expressing FGFR3 N540K fusion, 48 hrs, CellTiter Glo
T2 construct: P41212 (Transcription factor ETV6)
Procedure: For the compounds of the Examples of the present invention, cell strains of TEL-FGFR3 WT intracellular kinase domain fusion protein or intracellular domain fusion protein containing FGFR3 V555M or FGFR3 N540K mutation were stably expressed in Baf cells by transfection and were used to determine the cell proliferation effect of BaF3-Tel-FGFR3 WT. FGFR3 V555M or FGFR3 N540K. The specific test process was as follows: • 1) The cell suspension was plated into a 96-well plate containing growth medium (DMEM containing 1% Glutamax, 10% FBS and 1% Pen/Strep) at 2000-4000 cells/90 μL/per well, and then the mixture was incubated overnight at 37° C. and 5% CO2. • 2) 10 μL of growth medium containing a 10-fold stock solution of test compound was added to the cell culture (9 dose points, 3× serial dilution, starting from 1 μM, finally 0.3% DMSO). • 3) The mixture was incubated at 37° C. and 5% CO2 for 48 hrs. • 4) 50 μL of CellTiter Glo (CTG) reagent was added to the cell-containing 96-well plate, and the plate was then incubated at room temperature for 10 min. • 5) Relative light units (RLUs) were measured on a microplate reader with a luminescence detection module. RLU values were normalized to % survival, and concentration-response curves were plotted using Prism to calculate IC50 (nM).

[3] = target: T3, FGFR2 V564L (Homo sapiens, UniProt P21802, V564L); test: Cell proliferation assay for Tel-FGFR2 V564L in BaF3; conditions: BaF3 cells expressing FGFR2 V564L fusion, 48 hrs, CellTiter Glo
T3 construct: P41212 (Transcription factor ETV6)
Procedure: as §1

[4] = target: T4, FGFR3 V555M (Homo sapiens, UniProt P22607, V555M); test: Cell proliferation assay for FGFR3 V555M in BaF3; conditions: BaF3 cells expressing FGFR3 V555M fusion, 48 hrs, CellTiter Glo
T4 construct: P41212 (Transcription factor ETV6)
How it was run: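 Ba/F3 cells stably expressing TEL-FGFR3 kinase-domain fusions carrying N540K or V555M, 2000–4000 cells/well in DMEM/10% FBS, exposed 48 h at 37 °C to compound (9 points, 3-fold from 1 μM, 0.3% DMSO). Viability by CellTiter-Glo luminescence, normalized to % survival; IC50 (nM) fitted.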

[5] = target: T5, FGFR2 N549K (Homo sapiens, UniProt P21802, N549K); test: Cell proliferation assay for Tel-FGFR2 N549K in BaF3; conditions: BaF3 cells expressing FGFR2 N549K fusion, 48 hrs, CellTiter Glo
T5 construct: P41212 (Transcription factor ETV6)
Procedure: as §1

[6] = target: T6, FGFR2 V564F (Homo sapiens, UniProt P21802, V564F); test: Cell proliferation assay for Tel-FGFR2 V564F in BaF3; conditions: BaF3 cells expressing FGFR2 V564F fusion, 48 hrs, CellTiter Glo
T6 construct: P41212 (Transcription factor ETV6)
How it was run: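 BaF3 cells stably expressing TEL-FGFR2 kinase-domain fusions carrying the mutation were seeded at 2000-4000 cells/well in DMEM with 10% FBS, then treated 48 h at 37 °C with 9-point 3× dilutions from 1 μM (0.3% DMSO). CellTiter-Glo luminescence normalized to % survival gave IC50 (nM).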

[7] = target: T7, FGFR2 K659M (Homo sapiens, UniProt P21802, K659M); test: Cell proliferation assay for Tel-FGFR2 K659M in BaF3; conditions: BaF3 cells expressing FGFR2 K659M fusion, 48 hrs, CellTiter Glo
T7 construct: P41212 (Transcription factor ETV6)
Procedure: as §1

Measured: IC50

T3 sequence (P21802 481-770 V564L limits assumed): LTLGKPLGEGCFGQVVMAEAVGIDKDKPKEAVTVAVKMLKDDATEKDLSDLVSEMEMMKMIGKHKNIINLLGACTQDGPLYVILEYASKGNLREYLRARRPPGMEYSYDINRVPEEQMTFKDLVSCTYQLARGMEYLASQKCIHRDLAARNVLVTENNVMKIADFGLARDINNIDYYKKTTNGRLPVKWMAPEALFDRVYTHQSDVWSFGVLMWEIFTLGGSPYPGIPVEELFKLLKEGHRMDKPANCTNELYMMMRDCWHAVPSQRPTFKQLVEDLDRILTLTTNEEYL
T5 sequence (P21802 481-770 N549K limits assumed): as the sequence (P21802 481-770 V564L limits assumed) above, with N69K, L84V counted along it
T1 sequence (P21802 481-770 V564I limits assumed): as the sequence (P21802 481-770 V564L limits assumed) above, with L84I counted along it
T7 sequence (P21802 481-770 K659M limits assumed): as the sequence (P21802 481-770 V564L limits assumed) above, with L84V, K179M counted along it
T6 sequence (P21802 481-770 V564F limits assumed): as the sequence (P21802 481-770 V564L limits assumed) above, with L84F counted along it
T2 sequence (P22607 472-761 N540K limits assumed): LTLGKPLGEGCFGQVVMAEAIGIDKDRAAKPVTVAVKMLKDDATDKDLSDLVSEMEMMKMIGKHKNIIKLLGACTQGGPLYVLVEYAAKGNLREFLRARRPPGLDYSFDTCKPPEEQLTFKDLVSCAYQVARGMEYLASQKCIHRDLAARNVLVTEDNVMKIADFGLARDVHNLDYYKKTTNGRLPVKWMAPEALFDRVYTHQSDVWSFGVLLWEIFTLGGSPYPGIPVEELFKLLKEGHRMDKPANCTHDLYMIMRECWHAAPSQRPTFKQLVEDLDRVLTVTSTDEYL
T4 sequence (P22607 472-761 V555M limits assumed): as the sequence (P22607 472-761 N540K limits assumed) above, with K69N, V84M counted along it

C=CC(=O)N1CC[C@H](n2cc(C#Cc3ccc4oc(C5CC5)nc4c3)c3c(N)ncnc32)C1 [Example 1, (S)-1-(3-(4-amino-5-((2-cyclopropylbenzo[d]oxazol-5-yl)ethynyl)-7H-pyrrolo[2,3-d]pyrimidin-7-yl)pyrrolidin-1-yl)prop-2-en-1-one]
≤ 0.5 nM: [1]
0.5 to 5 nM: all other assays above
